Assay: PH of drug and complex
Format: physicochemical

PH: 2.25-2.75
SMILES: CC(C)(C(=O)O)c1ccc(C(O)CCCN2CCC(C(O)(c3ccccc3)c3ccccc3)CC2)cc1.Cl (racemic) [Fexofenadine Hydrochloride, (±)-4-[1-hydroxy-4-[4-(hydroxydiphenylmethyl)-1-piperidinyl]-butyl]-α,α-dimethylbenzene acetic acid hydrochloride]
